From patent publication US7998965B2, “Glutamate aggrecanase inhibitors” (Wyeth LLC, priority 2005, dated 2011) come the findings set out here.

Where two headings read alike, the source gives them in different places.

Assay [1] addresses T1, purified recombinant human Aggrecanase-1 (rAgg1) (Homo sapiens, UniProt O75173).
T1 sequence (O75173 213-837): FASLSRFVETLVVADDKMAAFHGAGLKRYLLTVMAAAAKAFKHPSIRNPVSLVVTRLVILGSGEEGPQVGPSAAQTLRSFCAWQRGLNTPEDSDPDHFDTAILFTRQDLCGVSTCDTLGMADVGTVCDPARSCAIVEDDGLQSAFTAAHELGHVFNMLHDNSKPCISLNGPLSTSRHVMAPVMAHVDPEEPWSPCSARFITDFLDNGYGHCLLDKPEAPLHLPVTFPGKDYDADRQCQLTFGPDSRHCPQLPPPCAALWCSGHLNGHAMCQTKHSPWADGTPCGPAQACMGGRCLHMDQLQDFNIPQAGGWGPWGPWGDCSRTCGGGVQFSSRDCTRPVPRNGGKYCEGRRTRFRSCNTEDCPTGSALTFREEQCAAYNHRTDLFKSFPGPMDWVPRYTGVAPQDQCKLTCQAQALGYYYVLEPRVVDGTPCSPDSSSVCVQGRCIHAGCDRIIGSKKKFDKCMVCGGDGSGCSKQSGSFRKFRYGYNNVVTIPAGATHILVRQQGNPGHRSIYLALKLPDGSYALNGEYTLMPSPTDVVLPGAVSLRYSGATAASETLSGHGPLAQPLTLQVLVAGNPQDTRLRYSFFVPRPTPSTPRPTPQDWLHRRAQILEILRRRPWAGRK
As to the kind of experiment: In vitro fluorescence screen for Aggrecanase-1 inhibitors. Type of assay: biochemical. Also noted: Agg1 % at concentration: scale not given here. Conditions: for IC50: read-out: Agg1 IC50; for Ki: read-out: Ki Agg1.

In assay [2] the target is T2, purified recombinant human Aggrecanase-2 (Ag2t-Phe628-Strep) (Homo sapiens, UniProt Q9UNA0).
T2 construct: the form used is denoted as Ag2t-Phe628-Strep (MW=41,737)
T2 sequence (Q9UNA0 262-628): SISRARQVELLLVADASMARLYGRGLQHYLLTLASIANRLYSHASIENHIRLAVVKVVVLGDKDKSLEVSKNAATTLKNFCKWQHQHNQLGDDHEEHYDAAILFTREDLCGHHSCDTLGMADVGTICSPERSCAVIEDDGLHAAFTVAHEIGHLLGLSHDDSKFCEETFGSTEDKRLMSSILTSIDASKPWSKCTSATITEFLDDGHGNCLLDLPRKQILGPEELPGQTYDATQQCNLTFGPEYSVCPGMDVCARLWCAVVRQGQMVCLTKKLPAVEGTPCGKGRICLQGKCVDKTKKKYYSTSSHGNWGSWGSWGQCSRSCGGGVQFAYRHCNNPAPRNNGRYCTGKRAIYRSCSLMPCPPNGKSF
The experiment in a line: In vitro fluorescence screen for Aggrecanase-2 inhibitors. Type of assay: biochemical. The following applies: for IC50: read-out: Agg 2 IC50; for Ki: read-out: Ki Agg2.

As to `CC(C)(Cc1ccc(Cl)cc1)NC(=O)[C@H](CCC(=O)O)NC(=O)c1ccc(-c2ccc3c(c2)OCC3)cc1` [N-[2-(4-chlorophenyl)-1,1-dimethylethyl]-N^2-[4-(2,3-dihydro-1-benzofuran-6-yl)benzoyl]-L-α-glutamine], the “Agg1 % at concentration” value in assay [1] (Table 3, at 200 (nM)) was 65%. Moreover, the IC50 (commonly the point on the concentration scale where inhibition reaches its midpoint) in assay [2] (Table 3) lay within 90 to 270 nM.
`CC(C)(Cc1ccc(Cl)cc1)NC(=O)[C@H](CCC(=O)O)NC(=O)c1cccc(-c2ccc(Cl)s2)c1` [Example 8JJJJJJJJJ, N-[2-(4-chlorophenyl)-1,1-dimethylethyl]-N^2-[3-(5-chloro-2-thienyl)benzoyl]-L-α-glutamine]: the “Agg1 % at concentration” value in assay [1] (Table 3, at 25000 (nM)) turned out to be 25%. Moreover, in assay [2] (Table 3, at 25000 (nM)), the “Agg 2 % at concentration” value stood at 10%.
Turning to `O=C(O)CC[C@H](NC(=O)c1ccc(-c2ccc(OCc3cccc(F)c3)cc2)cc1)C(=O)NCc1ccccc1` [Example 15I, N-benzyl-N^2-({4′-[(3-fluorobenzyl)oxy]biphenyl-4-yl}carbonyl)-L-α-glutamine], the figures for the IC50 in assay [1] (Table 2) and in assay [2] (Table 2) were 430 nM and 1590 nM, respectively.
For `O=C(O)CC[C@H](NC(=O)C1c2ccccc2-c2ccccc21)C(=O)NCCCCCCO` [Example 8UUUU, N^2-(9H-fluoren-9-ylcarbonyl)-N^1-(6-hydroxyhexyl)-L-α-glutamine] the same measures were more than 17000 nM and approximately 67000 nM.
As for `CC(C)(Cc1ccc(F)cc1)NC(=O)[C@H](CCC(=O)O)NC(=O)c1ccc(-c2ccc(Cl)cc2)cc1` [N^2-[(4′-chlorobiphenyl-4-yl)carbonyl]-N-[2-(4-fluorophenyl)-1,1-dimethylethyl]-L-α-glutamine], in assay [1] (Table 3), the IC50 was less than 30 nM and the Ki (in general, a dissociation constant, usually derived from enzyme kinetics or from competition with a known ligand) was 6.7 nM. For the same compound, in assay [2] (Table 3), the IC50 came to 59 nM and the inhibition constant Ki was determined as 54 nM.
Regarding `O=C(O)CC[C@H](NC(=O)c1ccc2c(c1)C(=O)c1ccccc1-2)C(=O)NC12CC3CC(CC(C3)C1)C2` [Example 8YYYY, N^1-1-adamantyl-N^2-[(9-oxo-9H-fluoren-2-yl)carbonyl]-L-α-glutamine], the half-maximal inhibitory concentration (IC50) is 1500 nM in assay [1] (Table 2) and more than 200000 nM in assay [2] (Table 2).
In the case of `COc1cc(COc2ccc(-c3ccc(C(=O)N[C@@H](CCC(=O)O)C(=O)NC(C)(C)Cc4ccccc4)cc3)cc2)cc(OC)c1` [Example 19C, N^2-({4′-[(3,5-dimethoxybenzyl)oxy]biphenyl-4-yl}carbonyl)-N-(1,1-dimethyl-2-phenylethyl)-L-α-glutamine], the IC50 in assay [1] (Table 2) worked out at 140 nM; in assay [2] (Table 2), 75 nM.
`COc1cccc(-c2ccc(C(=O)N[C@@H](CCC(=O)O)C(=O)NC(C)(C)Cc3ccc(Cl)cc3)s2)c1` [Example 8YYYYYYY, N-[2-(4-chlorophenyl)-1,1-dimethylethyl]-N^2-{[5-(3-methoxyphenyl)-2-thienyl]carbonyl}-L-α-glutamine]: in assay [1] (Table 3), the IC50 was less than 30 nM and the Ki turned out to be 27 nM. In assay [2] (Table 3), the IC50 lay in the range of 200 to 600 nM and the Ki worked out at 197 nM.
Regarding `COc1cccc(-c2ccc(C(=O)N[C@@H](CCC(=O)O)C(=O)NC(C)(C)Cc3ccc(F)cc3)cn2)c1` [N-[2-(4-fluorophenyl)-1,1-dimethylethyl]-N^2-{[6-(3-methoxyphenyl)pyridin-3-yl]carbonyl}-L-α-glutamine], the IC50 in assay [1] (Table 3) was found to be 140 nM; in assay [2] (Table 3) it was 5200 nM.
Take `O=C(O)CC[C@H](NC(=O)c1cccc2c1Cc1ccccc1-2)C(=O)NCCCCCCO` [Example 8WWWWW, N^2-(9H-fluoren-1-ylcarbonyl)-N^1-(6-hydroxyhexyl)-L-α-glutamine]: the IC50 is more than 17000 nM in assay [1] (Table 2) and more than 67000 nM in assay [2] (Table 2).
The corresponding values for `COc1cc(CNC(=O)[C@H](CCC(=O)O)NC(=O)c2ccc(-c3cccc(C(C)C)c3)cc2)cc(OC)c1OC` [Example 17Z, N^2-[(3′-isopropylbiphenyl-4-yl)carbonyl]-N-(3,4,5-trimethoxybenzyl)-L-α-glutamine] are 170 nM and 3140 nM.
On to `Cc1cccc(CNC(=O)[C@H](CCC(=O)O)NC(=O)c2ccc(-c3cccc(CBr)c3)cc2)c1` [Example 8TTTTTTT, N^2-{[3′-(bromomethyl)biphenyl-4-yl]carbonyl}-N-(3-methylbenzyl)-L-α-glutamine], for which, in assay [1] (Table 3), the IC50 was 707 nM. The inhibition at 11 µM in assay [2] (Table 3, at 11000 (nM), read-out: Agg 2 % at concentration) turned out to be 20%.
Regarding `CC(C)(Cc1ccccc1)NC(=O)[C@H](CCC(=O)O)NC(=O)c1ccc(-c2ccc(F)c(F)c2)cc1` [Example 8GGGGGGG, N^2-[(3′,4′-difluorobiphenyl-4-yl)carbonyl]-N-(1,1-dimethyl-2-phenylethyl)-L-α-glutamine], the IC50 in assay [1] (Table 3) turned out to be 60 nM; in assay [2] (Table 3), 160 nM.
Turning to `CC(C)(Cc1ccc(Cl)cc1)NC(=O)[C@H](CCC(=O)O)NC(=O)c1ccc(-c2ccccc2)o1` [N-[2-(4-chlorophenyl)-1,1-dimethylethyl]-N^2-(5-phenyl-2-furoyl)-L-α-glutamine], in assay [1] (Table 3, at 16700 (nM)), the “Agg1 % at concentration” value is 60%. The “Agg 2 % at concentration” value in assay [2] (Table 3, at 50000 (nM)) was 50%.
On to `COc1cc(CNC(=O)[C@H](CCC(=O)O)NC(=O)c2ccc(-c3ccc(CBr)cc3)cc2)cc(OC)c1OC` [Example 8MMMMMMM, N^2-{[4′-(bromomethyl)biphenyl-4-yl]carbonyl}-N-(3,4,5-trimethoxybenzyl)-L-α-glutamine], for which the IC50 in assay [1] (Table 3) came to 198 nM; in assay [2] (Table 3) it was 614 nM.
Consider `Cc1cccc(CNC(=O)[C@H](CCC(=O)O)NC(=O)C2c3ccccc3-c3ccccc32)c1` [Example 8EEEEE, N^2-(9H-fluoren-9-ylcarbonyl)-N^1-(3-methylbenzyl)-L-α-glutamine], for which the IC50 in assay [1] (Table 2) is more than 50000 nM; in assay [2] (Table 2) it was more than 200000 nM.
As to `COc1cc(CNC(=O)[C@H](CCC(=O)O)NC(=O)c2ccc(-c3ccc(CO)cc3)cc2)cc(OC)c1OC` [Example 8LLLLLLL, N^2-{[4′-(hydroxymethyl)biphenyl-4-yl]carbonyl}-N-(3,4,5-trimethoxybenzyl)-L-α-glutamine], the IC50 in assay [1] (Table 3) is 228 nM; in assay [2] (Table 3), 3380 nM.
As for `O=C(O)CC[C@H](NC(=O)c1ccc(-c2ccccc2)cc1)C(=O)NCCc1cccc(Br)c1` [Example 8MMM, N^2-(biphenyl-4-ylcarbonyl)-N^1-[2-(3-bromophenyl)ethyl]-L-α-glutamine], the IC50 in assay [1] (Table 1) worked out at 40 nM; in assay [2] (Table 1), 500 nM.
For `CN(CCc1ccccc1)C(=O)[C@H](CCC(=O)O)NC(=O)c1ccc(-c2ccccc2)cc1` [Example 8CCCCCC, N^2-(biphenyl-4-ylcarbonyl)-N-methyl-N-(2-phenylethyl)-L-α-glutamine], the IC50 was 2400 nM in assay [1] (Table 2) and more than 22000 nM in assay [2] (Table 2).
Take `CC(C)(Cc1ccc(F)cc1)NC(=O)[C@H](CCC(=O)O)NC(=O)c1ccc(-c2cccc(F)c2)cc1` [N^2-[(3′-fluorobiphenyl-4-yl)carbonyl]-N-[2-(4-fluorophenyl)-1,1-dimethylethyl]-L-α-glutamine]: the values for the IC50 in assay [1] (Table 3) and in assay [2] (Table 3) were less than 30 nM and 77 nM, respectively. Moreover, the figures for the Ki in assay [1] (Table 3) and in assay [2] (Table 3) were 4.5 nM and 81 nM, respectively.
For `CCC(C)c1ccc(-c2ccc(C(=O)N[C@@H](CCC(=O)O)C(=O)NC(C)(C)Cc3ccccc3)cc2)cc1` (stereo partly drawn) [Example 17S, N^2-[(4′-sec-butylbiphenyl-4-yl)carbonyl]-N-(1,1-dimethyl-2-phenylethyl)-L-α-glutamine], the figures for the half-maximal inhibitory concentration (IC50) in assay [1] (Table 2) and in assay [2] (Table 2) were 4600 nM and 10100 nM, respectively.
The corresponding values for `CC(C)(NC(=O)[C@H](CCC(=O)O)NC(=O)c1ccc2c(c1)C(=O)c1ccccc1-2)c1ccccc1` [Example 8MMMMM, N^1-(1-methyl-1-phenylethyl)-N^2-[(9-oxo-9H-fluoren-2-yl)carbonyl]-L-α-glutamine] are 20000 nM and approximately 22000 nM.
